Laboratory results from patent publication US20210318274A1, “METHODS FOR EVALUATING LIVER FUNCTION” (HepQuant, LLC, priority 2020, published 2021).
Where two headings read alike, the source gives them in different places.

Experiments:
[1] = Antipyrine clearance by Child-Pugh and DSI; format: in vivo, human
Description: Antipyrine is an analgesic and antipyretic. […] Antipyrine may be used in testing the effects of other drugs or diseases on drug-metabolizing enzymes in the liver, such as various cytochrome p450 (CYP) enzymes, for example, as shown in Table 22.

[2] = cited from earlier work
[3] = individuals with chronic liver disease and cirrhosis; cited from earlier work
[4] = design: species or system human; conditions: in vivo
Procedure: In some embodiments, the distinguishable compound is galactose. Galactose elimination capacity (GEC) has been used as an index of residual hepatic function. Galactose in the GEC test typically is administered intravenously at a dose of […] and venous samples taken every 5 min between 20 and 60 minutes. The clearance of galactose is decreased in individuals with chronic liver disease and cirrhosis. The fact that this carbohydrate has a high extraction ratio, however, makes the metabolism of galactose dependent on liver blood flow and hepatic functional mass. […] The carbohydrate galactose is metabolized almost exclusively in the liver, and the elimination rate at blood concentrations high enough to yield near-saturated enzymatic conversion, the GEC is used as a quantitative measure of the metabolic capacity of the liver. One study has shown that among patients with a newly-diagnosed cirrhosis and a decreased GEC, the GEC was a strong predictor of mortality. (Jepsen et al, 2009, The galactose elimination capacity and mortality in 781 Danish patients with newly-diagnosed liver cirrhosis: a cohort study. BMC Gastroenterol. 2009, 9:50).

[5] = Lidocaine MEGX 15 min concentration by Child-Pugh and DSI; format: in vivo, human; conditions: by DSI score group (5-15, 15-25, 25-35, 35-45)
Procedure: Lidocaine elimination and MEGX (monoethylglycinexylidide) formation after oral lidocaine administration may be used as a quantitative assessment of liver function. […] MEGX 15 minute concentrations.

[6] = in vivo
Description: The present inventors analyzed the relationship of DSI to pharmacokinetic parameters of various classes of drugs.
Methionine is an essential amino acid in humans, and is the substrate for other amino acids such as cysteine or taurine. Methionine also may be used to prevent liver toxicity in acetaminophen (Tylenol) poisoning, to increase acidity of urine, treat liver disorders, or improve wound healing. […] The methionine breath test may involve orally administered ^13C-methionine to detect hepatic mitochondrial dysfunction by evaluating level of ^13CO2 exhalation. ^13C methionine breath test may be used to monitor hepatic mitochondrial oxidation and drug-related mitochondrial toxicity in vivo, for example, to detect antiretroviral drug-related mitochondrial toxicity.

[7] = Obeticholic acid plasma exposure versus DSI, clinical trial in NASH; format: in vivo, human; conditions: NASH patients, fibrosis F1 to compensated F4
Description: Obeticholic acid (OCA) is a Farnesoid X Receptor (FXR) agonist, bile acid analog of chenodeoxycholic acid that is FDA approved for treatment of primary biliary cholangitis, and is being studied for use in treating other hepatic diseases and conditions. […] The circles are observed data; red lines are linear regression fit. OCA=Obeticholic acid. […] DSI correlates with OCA PK both at baseline (day 1) and at day 85.

For `Cc1cc(=O)n(-c2ccccc2)n1C` [Antipyrine], the Average antipyrine clearance ([1]; Child-Pugh class B versus CP A5 and CP A6 patients) was “decreased average antipyrine clearance”, the Average antipyrine clearance ([1]; by DSI score group (5-15, 15-25, 25-35, 35-45)) was “reduced average antipyrine clearance” and the Average antipyrine clearance ([1]; by DSI score group (5-15, 15-25, 25-35, 35-45), listed as antipyrine) was “lowest PK average values”. For the same compound, the “First pass hepatic extraction (qualitative)” value (from here on “First pass hepatic extraction”) ([2]; in vivo) was “low first pass hepatic metabolism”.

For `O=C[C@H](O)[C@@H](O)[C@@H](O)[C@H](O)CO` [Galactose], the Clearance of galactose [3] is given as “decreased”, the “Average galactose elimination capacity” value [4] is given as “decreased average galactose elimination capacity” and the “First pass hepatic extraction” value ([2]; substrate characterisation) is given as “relatively high first pass hepatic extraction”.

For `CCN(CC)CC(=O)Nc1c(C)cccc1C` [Lidocaine], the “Average MEGX 15 min concentration following lidocaine” value [5] is given as “lowest PK average values” and the “First pass hepatic extraction” value ([2]; substrate characterisation) is given as “relatively high first pass hepatic extraction”.

For `CSCC[C@H](N)C(=O)O` [Methionine], the “Average ^13CO2 exhalation score (methionine breath test)” value ([6]; human) was “reduced average ^13CO2 exhalation score”, the “Average ^13CO2 exhalation score (methionine breath test)” value [6] was “lowest PK average values” and the “Average methionine breath test value” [6] was “decreased average methionine breath test values”. The “First pass hepatic extraction” value ([2]; substrate characterisation) was “relatively low first pass hepatic extraction”.

With `CC[C@H]1[C@@H](O)[C@@H]2[C@H](CC[C@]3(C)[C@@H]([C@H](C)CCC(=O)O)CC[C@@H]23)[C@@]2(C)CC[C@@H](O)C[C@@H]12` [Obeticholic acid, 6alpha-ethyl-chenodeoxycholic acid] the “Plasma exposure in relation to DSI” value [7] was “related to DSI measurement”.
